SMILES	melting point [°C]
Cc1nn(C)c(Cl)c1CC(=O)O	169 to 171
Nc1nc(-c2ccncc2)cs1	172 to 174
Oc1nc(-c2ccccc2Cl)no1	161 to 163
O=C(O)COc1cccc(Oc2ccccn2)c1	124 to 126
Cn1c(S)nnc1CO	189 to 191
O=C(O)c1cc(-c2ccncc2)nc2ccccc12	308 to 310
CC(C)=CC(=O)Nc1scc(-c2ccccc2)c1C(=O)O	202 to 204
Cc1ccc(-n2nc(C(=O)O)c3c2CCC3)c(C)c1	198 to 200
CCOC(=O)c1nc(-c2ccc(Cl)c(Cl)c2)oc1C	99 to 101
CC1NCCn2c(Cl)ccc21 (configuration not stated)	53 to 55
CCOC(=O)c1c(C2CCCCC2)csc1N	109 to 111
O=C(O)c1cccc(S(=O)(=O)NCc2cccnc2)c1	231 to 233
c1c[nH]c(C2CCCN2)c1 (configuration not stated)	75 to 77
CSCCC(NC(=O)c1ccccc1Br)C(=O)O (configuration not stated)	171 to 173
COCCOc1ccc2[nH]ccc2c1	61 to 63
CCOc1ccc(N)cc1CO	77 to 79
CCOC(=O)CC(C)(O)c1cccc(O)c1 (configuration not stated)	85 to 87
Nc1nnc(-c2ccc(Br)cc2)[nH]1	214 to 216
O=C(O)C(Oc1cccc(F)c1)c1ccccc1 (configuration not stated)	108 to 110
NC(=O)C1CCCC(N)C1 (configuration not stated)	132 to 134
Cc1c(C)n(-c2ccc(Cl)cc2)c2ncnc(N)c12	249 to 251
CCC(Nc1c([N+](=O)[O-])c(C)nn1C)C(=O)O (configuration not stated)	129 to 131
COc1ccc(C)cc1NC(=O)C1CCCN1 (configuration not stated)	103 to 105
CCOC(=O)c1sc(-c2cccc(Br)c2)cc1N	97 to 99

SMILES	melting point [°C]
Nc1cc(C(F)(F)F)ccc1-n1cncn1	119 to 121
Cc1ncc(Br)c(N)n1	109 to 111
CC(=O)NCc1ccc(C(=O)O)o1	171 to 173
COC(=O)c1ccc(-c2ccc(C(=O)O)cc2)cc1	300 to 302
Cc1[nH]c2ccccc2c1C(=O)C(=O)O	199 to 201
CCCn1c(=O)n(CC(=O)O)c2ccccc21	173 to 175
CCOC(C)C(N)=S (configuration not stated)	54 to 56
Cc1c(Cl)cc(N)cc1Cl	55 to 57
N#Cc1ccc(Cl)cc1[N+](=O)[O-]	95 to 100
O=C(O)C1CCCN(C(=O)c2ccc3[nH]ncc3c2)C1 (configuration not stated)	239 to 241
O=C(O)c1cccc(N2C(=O)CSC2=S)c1	260 to 262
Cc1ccc(Cc2nnc(N)s2)cc1	209 to 211
O=C(O)Cn1nc(-c2ccccc2)oc1=O	196 to 198
O=C(O)c1cccc(CS)c1	104 to 106
COc1nc(N)n[nH]1	165 to 167
O=c1cnc2cc(F)c(F)cc2[nH]1	289 to 291
COc1cc(-c2nnc(CCl)o2)cc(OC)c1OC	121 to 123
COc1ccc(CNC(=O)OC(C)(C)C)c(OC)c1	59 to 61
COc1ccccc1NS(=O)(=O)c1ccc2oc(S)nc2c1	109 to 113
NNC(=O)CN1CCCC1=O	99 to 101
O=C1OCCN1c1cc([N+](=O)[O-])ccc1Cl	157 to 159
O=C(O)c1n[nH]c2ccc([N+](=O)[O-])cc12	253 to 255
CC(C)(C)OC(=O)N1C(=O)N(CC#N)C(C)(C)C1=O	149 to 151
COc1ccc(NS(=O)(=O)c2ccc(NN)c([N+](=O)[O-])c2)cc1	204 to 206

SMILES	melting point [°C]
COCCCOc1cccc(C(=O)O)c1	81 to 83
Cc1cc(O)nc(C(C)Cl)n1 (configuration not stated)	132 to 134
Cc1ccc(S(=O)(=O)OCC2CCN(C(=O)OC(C)(C)C)CC2)cc1	72 to 74
Cn1ccc(N2CCC(N)C2=O)n1 (configuration not stated)	141 to 143
Nc1ccc(Cl)c(-c2nnc3n2CCCCC3)c1	284 to 286
Nc1ncn(Cc2cccc(Br)c2)n1	147 to 149
CC(C)(C)OC(=O)Nc1ccc(C(=O)O)c(O)c1	158 to 160
CCOC(=O)c1sc2cc(Cl)ccc2c1Cl	75 to 77
Cc1cc(C)nc(-n2cc(C(=O)O)c(C(C)C)n2)n1	171 to 173
O=C(O)CCc1nc2ccccc2c(=O)n1C1CC1	183 to 185
O=C(O)CCN1C(=O)CSc2ccccc21	144 to 146
COc1cccc(-c2nnc(N)s2)c1	156 to 158
Nc1ccccc1NCCCn1ccnc1	160 to 162
CSC(C(=O)O)c1ccccc1 (configuration not stated)	75 to 77
CN1CCN(CC(N)c2ccccc2)CC1 (configuration not stated)	58 to 60
Nc1ccc(-c2csnn2)cc1	125 to 127
O=C(O)CCn1cc(Br)ccc1=O	172 to 174
COc1ccc(N2C(=O)CC(=O)NC2=S)cc1	241 to 243
CC(C)c1ccc(C=O)cc1[N+](=O)[O-]	50 to 52
Cc1nccn1-c1cccc(F)n1	97 to 99
O=C(O)CSc1nc2cc(-c3ccccc3)sc2c(=O)n1Cc1ccccc1	320 to 322
FC(F)(F)c1ccc(C2CCCCN2)cc1 (configuration not stated)	36 to 38
CCC(C)C(O)C(=O)O (configuration not stated)	45 to 47
CN(C)c1c(F)cc(C(=N)N)cc1F	95 to 97

— a melting point compilation (Tetko et al.)
